“And” between values parts separate entries of the source, which are not always exact repeats. Equal entries are not always repeated. ± gives the uncertainty stated by the source.
Assay: xn = mol fraction of the nth substance listed

CC(C)=O + CCCCO
Details | viscosity [mPa·s]
298.15 K, 101 kPa, x1 = 0.12 | 1.65 ± 0.015
298.15 K, 101 kPa, x1 = 0.24 | 1.164 ± 0.011
298.15 K, 101 kPa, x1 = 0.35 | 0.8875 ± 0.0087
298.15 K, 101 kPa, x1 = 0.46 | 0.7108 ± 0.0073
298.15 K, 101 kPa, x1 = 0.56 | 0.5919 ± 0.0063
298.15 K, 101 kPa, x1 = 0.66 | 0.5089 ± 0.0054
298.15 K, 101 kPa, x1 = 0.75 | 0.4285 ± 0.0046
298.15 K, 101 kPa, x1 = 0.84 | 0.4014 ± 0.0043
298.15 K, 101 kPa, x1 = 0.92 | 0.3651 ± 0.004
303.15 K, 101.33 kPa, x1 = 0.1152 | 1.535 ± 0.31
303.15 K, 101.33 kPa, x1 = 0.2307 | 1.127 ± 0.23
303.15 K, 101.33 kPa, x1 = 0.3341 | 0.879 ± 0.18
303.15 K, 101.33 kPa, x1 = 0.4685 | 0.642 ± 0.13
303.15 K, 101.33 kPa, x1 = 0.7032 | 0.427 ± 0.086
303.15 K, 101.33 kPa, x1 = 0.7974 | 0.368 ± 0.074

COc1ccccc1 + CCCCO
viscosity [mPa·s]
Details | 303 K | 303.15 K | 313 K | 313.15 K | 323 K | 323.15 K
100 kPa, x1 = 0.121 | 1.831 ± 0.37 | – | 1.255 ± 0.25 | – | 1.031 ± 0.21 | –
100 kPa, x1 = 0.236 | 1.534 ± 0.31 | – | 1.069 ± 0.21 | – | 0.8722 ± 0.17 | –
100 kPa, x1 = 0.346 | 1.297 ± 0.26 | – | 0.9238 ± 0.18 | – | 0.7426 ± 0.15 | –
100 kPa, x1 = 0.452 | 1.128 ± 0.23 | – | 0.8353 ± 0.17 | – | 0.6858 ± 0.14 | –
100 kPa, x1 = 0.553 | 1.049 ± 0.21 | – | 0.7844 ± 0.16 | – | 0.6551 ± 0.13 | –
100 kPa, x1 = 0.65 | 0.9984 ± 0.2 | – | 0.7302 ± 0.15 | – | 0.6131 ± 0.12 | –
100 kPa, x1 = 0.742 | 0.9819 ± 0.2 | – | 0.7012 ± 0.14 | – | 0.5948 ± 0.12 | –
100 kPa, x1 = 0.832 | 0.9796 ± 0.2 | – | 0.6884 ± 0.14 | – | 0.5673 ± 0.11 | –
100 kPa, x1 = 0.918 | 0.9769 ± 0.2 | – | 0.6724 ± 0.13 | – | 0.5517 ± 0.11 | –
101.33 kPa, x1 = 0.1002 | – | 1.874 ± 0.057 | – | 1.48 ± 0.046 | – | 1.165 ± 0.037
101.33 kPa, x1 = 0.2 | – | 1.523 ± 0.047 | – | 1.254 ± 0.04 | – | 0.989 ± 0.032
101.33 kPa, x1 = 0.3001 | – | 1.359 ± 0.043 | – | 1.075 ± 0.035 | – | 0.899 ± 0.03
101.33 kPa, x1 = 0.3998 | – | 1.197 ± 0.038 | – | 0.975 ± 0.032 | – | 0.806 ± 0.027
101.33 kPa, x1 = 0.5 | – | 1.079 ± 0.035 | – | 0.889 ± 0.029 | – | 0.75 ± 0.025
101.33 kPa, x1 = 0.6002 | – | 1.001 ± 0.032 | – | 0.851 ± 0.028 | – | 0.734 ± 0.025
101.33 kPa, x1 = 0.7 | – | 0.952 ± 0.031 | – | 0.805 ± 0.027 | – | 0.721 ± 0.024
101.33 kPa, x1 = 0.8003 | – | 0.929 ± 0.03 | – | 0.788 ± 0.026 | – | 0.709 ± 0.024
101.33 kPa, x1 = 0.9 | – | 0.914 ± 0.03 | – | 0.772 ± 0.026 | – | 0.698 ± 0.024

Cc1ccccc1 + CCCCO
viscosity [mPa·s]
Details | 298.15 K | 303.15 K | 308.15 K | 313.15 K | 318.15 K
101 kPa, x1 = 0.092 | 2.01 ± 0.07 | 1.769 ± 0.062 | 1.581 ± 0.056 | 1.393 ± 0.05 | 1.292 ± 0.047
101 kPa, x1 = 0.1987 | 1.59 ± 0.057 | 1.459 ± 0.052 | 1.323 ± 0.048 | 1.199 ± 0.044 | 1.106 ± 0.041
101 kPa, x1 = 0.2983 | 1.279 ± 0.046 | 1.181 ± 0.043 | 1.076 ± 0.04 | 0.9827 ± 0.037 | 0.9514 ± 0.036
101 kPa, x1 = 0.393 | 1.084 ± 0.04 | 1.004 ± 0.037 | 0.9192 ± 0.035 | 0.8418 ± 0.032 | 0.8198 ± 0.032
101 kPa, x1 = 0.5091 | 0.8978 ± 0.034 | 0.8372 ± 0.032 | 0.7739 ± 0.03 | 0.714 ± 0.028 | 0.7048 ± 0.028
101 kPa, x2 = 0.12 | 0.56 ± 0.006 | – | – | – | –
101 kPa, x2 = 0.24 | 0.635 ± 0.006 | – | – | – | –
101 kPa, x2 = 0.35 | 0.715 ± 0.007 | – | – | – | –
101 kPa, x2 = 0.45 | 0.84 ± 0.008 | – | – | – | –
101 kPa, x2 = 0.55 | 0.997 ± 0.01 | – | – | – | –
101 kPa, x2 = 0.65 | 1.199 ± 0.012 | – | – | – | –
101 kPa, x2 = 0.74 | 1.441 ± 0.014 | – | – | – | –
101 kPa, x2 = 0.83 | 1.73 ± 0.017 | – | – | – | –
101 kPa, x2 = 0.92 | 2.12 ± 0.021 | – | – | – | –
101.33 kPa, x1 = 0.0859 | – | 1.86 ± 0.03 | 1.656 ± 0.027 | 1.489 ± 0.024 | –
101.33 kPa, x1 = 0.2006 | – | 1.452 ± 0.023 | 1.311 ± 0.021 | 1.193 ± 0.02 | –
101.33 kPa, x1 = 0.2972 | – | 1.175 ± 0.019 | 1.065 ± 0.018 | 0.979 ± 0.016 | –
101.33 kPa, x1 = 0.3877 | – | 0.999 ± 0.017 | 0.911 ± 0.015 | 0.84 ± 0.014 | –
101.33 kPa, x1 = 0.5025 | – | 0.833 ± 0.014 | 0.77 ± 0.013 | 0.713 ± 0.013 | –
101.33 kPa, x1 = 0.6013 | – | 0.726 ± 0.013 | 0.675 ± 0.012 | 0.629 ± 0.011 | –
101.33 kPa, x1 = 0.7617 | – | 0.59 ± 0.011 | 0.557 ± 0.01 | 0.524 ± 0.01 | –
101.33 kPa, x1 = 0.8121 | – | 0.571 ± 0.01 | 0.534 ± 0.01 | 0.507 ± 0.007 | –
101.33 kPa, x1 = 0.947 | – | 0.526 ± 0.01 | 0.498 ± 0.007 | 0.478 ± 0.007 | –

c1ccc2ccccc2c1 + CCCCO
viscosity
Details | 303.15 K | 308.15 K | 313.15 K | 318.15 K | 323.15 K
101 kPa, x1 = 0.07958 | 2.076 ± 0.053 mPa·s | 1.848 ± 0.047 mPa·s | 1.633 ± 0.042 mPa·s | 1.461 ± 0.037 mPa·s | 1.312 ± 0.033 mPa·s
101 kPa, x1 = 0.1174 | – | 1.796 ± 0.046 mPa·s | 1.601 ± 0.041 mPa·s | 1.427 ± 0.036 mPa·s | 1.28 ± 0.032 mPa·s
101.33 kPa, x1 = 0.06489 | – | – | 1.67 ± 0.044 mPa·s | – | 1.33 ± 0.035 mPa·s
101.33 kPa, x1 = 0.07958 | 2.076 ± 0.015 mPa·s | 1.848 ± 0.013 mPa·s | 1.633 ± 0.011 mPa·s and 1.633 ± 0.043 mPa·s | 1.461 ± 0.01 mPa·s | 1.312 ± 0.0092 mPa·s and 1.312 ± 0.035 mPa·s
101.33 kPa, x1 = 0.09537 | – | – | 1.624 ± 0.043 mPa·s | – | 1.3 ± 0.035 mPa·s
101.33 kPa, x1 = 0.1174 | – | – | 1.601 ± 0.042 mPa·s | – | 1.28 ± 0.034 mPa·s
101.33 kPa, x1 = 0.12 | – | 1.796 ± 0.013 mPa·s | 1.601 ± 0.011 mPa·s | 1.427 ± 0.01 mPa·s | 1.28 ± 0.009 mPa·s
101.33 kPa, x1 = 0.1436 | – | – | 1.567 ± 0.041 mPa·s | – | 1.26 ± 0.034 mPa·s

CC(C)=O + CCCCn1cc[n+](C)c1.F[B-](F)(F)F
Details | viscosity [mPa·s]
298.15 K, 101 kPa, x1 = 0.0973 | 77.6 ± 14
